Data on eleven compounds can be found in patent publication US20240002391A1, “4-ALKOXYPYRROLO[2,1-F][1,2,4]TRIAZINES AND PREPARATION AND USES THEREOF” (BioSplice Therapeutics, Inc., priority 2022, published 2024).

SMILES strings stand for the structures.

In assay [1] the target is recombinant DYRK1A kinase (Homo sapiens (Human), UniProt Q13627). Description: DYRK1A kinase assay (Ser/Thr 18 peptide Z-lyte FRET). Format: biochemical. Particulars: DYRK1A kinase activity, Z-lyte Ser/Thr 18 peptide, 15 μM ATP; method text calls the value IC50; read-out: EC50 (the source's name). Summed up:
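Z-lyte FRET read-out: coumarin (Em 455) over fluorescein (Em 520) emission ratio, converted to percent phosphorylation after 1 h development. Reaction: 0.25 μg/mL kinase, 15 μM ATP, 4 μM peptide, 1 h RT with compound, duplicate wells. IC50s fitted by non-linear regression.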

The test system of assay [2] is Tau phosphorylation at Thr212 (pThr212) in HEK293T cells transfected with DYRK1A and MAPT. Description: Tau phosphorylation phosphoTau (Thr212) AlphaLISA assay in HEK293T cells transfected with DYRK1A and MAPT. Particulars: HEK-293T, HEK293T cells transiently transfected with human DYRK1A and MAPT, compound treatment 18-24 hours, read-out: pTau (Thr212) EC50. Format: cell-based. The method, then: Representative compounds were screened using the assay procedure for tau phosphorylation activity described below.
HEK293T cells (ATCC, CRL3216) cultured in DMEM (Thermo Fisher Scientific, 10566024) supplemented with 10% FBS (Coming, 35-011—CV) and Penicillin/Streptomycin (Thermo Fisher Scientific, 15140163) were seeded in a 75 cm^2 flask at 8.1×10^6 cells/flask. The HEK293T cells were then transiently transfected with 5 μg DYRK1A (NM_001396) human untagged clone (OriGene, SC314641) and 2.5 μg MAPT (441 a.a. Tau gene) (NM_005910) human untagged clone (OriGene, TP313312) using Lipofectamine 3000 (Thermo Fisher Scientific, L30000015) and incubated for 20-30 hours in a humidified incubator at 37° C. and 5% CO^2. Post-incubation, HEK293T cells transfected with the DYRK1A and MAPT expression vectors were harvested and seeded in BioCoat poly-D lysine coated 96-well plates (Coming, 354461) at 3×10^4 cells/well.
The above synthesized compounds were screened using the cell assay procedure to assess decreased Tau phosphorylation at Thr212 (pThr212) described below.
Each compound was dissolved in DMSO (Sigma-Aldrich, D8418-100 mL) as a 10 mM stock. 10 mM stocks were serially diluted 1:3, 10-point dose-response curve and added to the cells with a final concentration ranging from 20 μM to 1.1 nM. Cells were treated with compounds in duplicate and incubated for 18-24 hours in a humidified incubator at 37° C. and 5% CO^2.
Following the overnight compound treatment, cells were lysed with 1X Alpha Surefire Ultra Lysis Buffer (Perkin Elmer, ALSU-LB-100ML) complemented with 1X Halt Phosphatase Inhibitor Cocktail (Thermo Fisher Scientific, 78427) and 1X Halt Protease Inhibitor Cocktail (Thermo Fisher Scientific, 78438). Lysates were spun down at 12,000 g for 10 min to remove any cellular debris and 5 μL of lysates were dispensed into a 384-well Opti-Plate (Perkin Elmer, 6007290) for the measurement of Tau phosphorylation in the phosphoTau (Thr212) AlphaLISA assay. Donor antibody, biotinylated HT7Tau (Thermo Fisher Scientific, MN1000B), and acceptor antibody, pThr212Tau (Thermo Fisher Scientific, 44740G) were both added to the cell lysates at a final concentration of 3 nM and incubated for 1 hour at room temperature. Following incubation of the lysates with the donor and acceptor antibodies, anti-rabbit IgG(Fc specific) AlphaLISA acceptor beads (Perkin Elmer, AL104C) were added at a 10 ug/mL final concentration and incubated for 1 hour at room temperature protected from light. Lastly, AlphaScreen streptavidin donor beads (PerkinElmer, 6760002) were added at 40 ug/mL final concentration and incubated for 1 hour at room temperature protected from light. Plates were read at […] on the EnVision Multilabel Plate Reader (Perkin Elmer). The phospho-Tau (Thr212) AlphaLISA signal was used to plot, draw the curve fitting, and determine each compound's EC50 in Prism (GraphPad).

Regarding `COc1nc(N[C@H]2CC[C@](C)(O)CC2)nn2ccc(-c3ccc4nccn4c3)c12` [Compound 56, trans-4-((5-(Imidazo[1,2-a]pyridin-6-yl)-4-methoxypyrrolo[2,1-f][1,2,4]triazin-2-yl)amino)-1-methylcyclohexan-1-ol], the IC50 in assay [1] came out at 1.3 nM. Also, in assay [2], the EC50 was 35.7 nM.
`COc1nc(N[C@H]2C[C@](C)(NC(C)=O)C2)nn2ccc(-c3ccc4ncnn4c3)c12` [Compound 192, N-(trans-3-((5-([1,2,4]Triazolo[1,5-a]pyridin-6-yl)-4-methoxypyrrolo[2,1-f][1,2,4]triazin-2-yl)amino)-1-methylcyclobutyl)acetamide]: the IC50 in assay [1] was determined as 0.9 nM. For the same compound, the EC50 in assay [2] turned out to be 18.1 nM.
Regarding `COc1nc(N[C@H]2CC[C@](C)(O)CC2)nn2ccc(-c3ccc4ncnn4c3)c12` [Compound 194, trans-4-((5-([1,2,4]Triazolo[1,5-a]pyridin-6-yl)-4-methoxypyrrolo[2,1-f][1,2,4]triazin-2-yl)amino)-1-methylcyclohexan-1-ol], in assay [1], the IC50 is 2.2 nM. The 50% effective concentration (EC50) in assay [2] worked out at 107 nM.
On to `COc1nc(N[C@H]2CC[C@](C)(O)CC2)nn2ccc(-c3cnc4nccn4c3)c12` [Compound 257, trans-4-((5-(Imidazo[1,2-a]pyrimidin-6-yl)-4-methoxypyrrolo[2,1-f][1,2,4]triazin-2-yl)amino)-1-methylcyclohexan-1-ol], for which the IC50 in assay [1] was found to be 0.4 nM. Also, the concentration for a half-maximal effect (EC50) in assay [2] turned out to be 15.1 nM.
`COc1nc(N[C@H]2CCN(C)C[C@H]2F)nn2ccc(-c3ccc4ncccc4c3)c12` [Compound 310, N-((3R,4S)-3-Fluoro-1-methylpiperidin-4-yl)-4-methoxy-5-(quinolin-6-yl)pyrrolo[2,1-f][1,2,4]triazin-2-amine]: the IC50 in assay [1] amounted to 4.7 nM. Moreover, the EC50 in assay [2] amounted to 109 nM.
The like results for `COc1nc(N[C@H]2CC[C@H](NC(C)=O)CC2)nn2ccc(-c3ccc4nccn4c3)c12` [Compound 54, N-(trans-4-((5-(Imidazo[1,2-a]pyridin-6-yl)-4-methoxypyrrolo[2,1-f][1,2,4]triazin-2-yl)amino)cyclohexyl)acetamide] were, in that order, 1.2 nM and 25.7 nM.
As for `COc1nc(NC2CC3(COC3)C2)nn2ccc(-c3cnc4nccn4c3)c12` [Compound 272, 5-(Imidazo[1,2-a]pyrimidin-6-yl)-4-methoxy-N-(2-oxaspiro[3.3]heptan-6-yl)pyrrolo[2,1-f][1,2,4]triazin-2-amine], the IC50 in assay [1] is 1.3 nM. In addition, in assay [2], the EC50 turned out to be 13.4 nM.
On the same counts, the results for `CNC(=O)[C@]1(C)C[C@@H](Nc2nc(OC)c3c(-c4ccc5nnn(C)c5c4)ccn3n2)C1` [Compound 210, trans-3-((4-Methoxy-5-(1-methyl-1H-benzo[d][1,2,3]triazol-6-yl)pyrrolo[2,1-f][1,2,4]triazin-2-yl)amino)-N,1-dimethylcyclobutane-1-carboxamide] are 1.5 nM and 19.7 nM.
Take `COc1nc(N[C@@H]2CN(C(C)=O)C[C@@H]2F)nn2ccc(-c3ccc4nccnc4c3)c12` [Compound 352, 1-((3S,4R)-3-Fluoro-4-((4-methoxy-5-(quinoxalin-6-yl)pyrrolo[2,1-f][1,2,4]triazin-2-yl)amino)pyrrolidin-1-yl)ethan-1-one]: the IC50 in assay [1] came to 2.2 nM. In assay [2], the EC50 stood at 39.4 nM.
On the same counts, the results for `COc1nc(N[C@H]2CC[C@@](C)(O)CC2)nn2ccc(-c3cnc4nc(C)n(CC(F)F)c4c3)c12` [Compound 1, cis-4-((5-(1-(2,2-Difluoroethyl)-2-methyl-1H-imidazo[4,5-b]pyridin-6-yl)-4-methoxypyrrolo[2,1-f][1,2,4]triazin-2-yl)amino)-1-methylcyclohexan-1-ol] are 22.4 nM and 21.6 nM.
The like results for `COc1nc(N[C@H]2C[C@](C)(O)C2)nn2ccc(-c3ccc4nnn(C)c4c3)c12` [Compound 200, trans-3-((4-Methoxy-5-(1-methyl-1H-benzo[d][1,2,3]triazol-6-yl)pyrrolo[2,1-f][1,2,4]triazin-2-yl)amino)-1-methylcyclobutan-1-ol] were, in that order, 3.8 nM and 130 nM.

The term EC50 denotes the concentration at which the effect is half-maximal.
